Experimental data reported in patent publication US7829582B2, “Piperidinyl substituted pyrrolidinones as inhibitors of 11-beta-hydroxysteroid dehydrogenase 1” (Eli Lilly and Company, priority 2006, dated 2010).

What was measured:
[1] = target: T1, 11β-HSD1 (Homo sapiens, UniProt P28845); assay: Human aortic smooth muscle cell assay (cortisone to cortisol conversion); type: cell-based; details: primary human aortic smooth muscle cells (AoSMC), hTNFα-induced 11β-HSD1, cortisol measured by immunoassay
T1 construct: endogenous in cells; host or cells: primary human aortic smooth muscle cells (AoSMC), induced with hTNFα
Method: Human Aortic Smooth Muscle Cell Assay
Primary human aortic smooth muscle cells (AoSMC) are cultured in 5% FBS growth medium to a passage number of 6, then pelleted by centrifugation and resuspended at a density of 9×10^4 cells/mL in 0.5% FBS assay medium containing 12 ng/mL hTNFα to induce expression of 11β-HSD1. Cells are seeded into 96-well tissue culture assay plates at 100 μL/well (9×10^3 cells/well) and incubated for 48 hours at 37° C., 5% CO2. Following induction, cells are incubated for 4 hours at 37° C., 5% CO2 in assay medium containing test compounds then treated with 10 μL/well of 10 μM cortisone solubilized in assay medium, and incubated for 16 hours at 37° C., 5% CO2. Medium from each well is transferred to a plate for subsequent analysis of cortisol using a competitive fluorescence resonance time resolved immunoassay. In solution, an allophycocyanin (APC)-cortisol conjugate and free cortisol analyte compete for binding to a mouse anti-cortisol antibody/Europium (Eu)-anti mouse IgG complex. Higher levels of free cortisol result in diminishing energy transfer from the Europium-IgG to the APC-cortisol complex resulting in less APC fluorescence. Fluorescent intensities for Europium and APC are measured using a LJL Analyst AD. Europium and APC excitation is measured using 360 nm excitation and 615 nm and 650 nm emission filters respectively. Time resolved parameters for Europuium were 1000 μs integration time with a 200 μs delay. APC parameters are set at 150 μs integration time with a 50 μs delay. Fluorescent intensities measured for APC are modified by dividing by the Eu fluorescence (APC/Eu). This ratio is then used to determine the unknown cortisol concentration by interpolation using a cortisol standard curve fitted with a 4-parameter logistic equation. These concentrations are then used to determine compound activity by plotting concentration versus % inhibition, fitting with a 4-parameter curve and reporting the IC50.

[2] = target: T2, 11β-HSD1 (Mus musculus, UniProt P50172); assay: Acute in vivo cortisone conversion assay; details: male C57BL/6 mice, oral dose 10 mg/kg, cortisone challenge 16 hours post dose, serum cortisol by LC-MS/MS
T2 construct: tissue Harlan Sprague Dawley; host or cells: whole animal, male C57BL/6 mice; serum cortisol read-out
Method: Acute In Vivo Cortisone Conversion Assay
In general, compounds are dosed orally into mice, the mice are challenged with a subcutaneous injection of cortisone at a set timepoint after compound injection, and the blood of each animal is collected some time later. Separated serum is then isolated and analyzed for levels of cortisone and cortisol by LC-MS/MS, followed by calculation of mean cortisol and percent inhibition of each dosing group. Specifically, male C57BL/6 mice are obtained from Harlan Sprague Dawley at average weight of 25 grams. Exact weights are taken upon arrival and the mice randomized into groups of similar weights. Compounds are prepared in 1% w-w HEC, 0.25% w-w polysorbate 80, 0.05% w-w Dow Corning antifoam #1510-US at various doses based on assumed average weight of 25 grams. Compounds are dosed orally, 200 μl per animal, followed by a subcutaneous dose, 200 μl per animal, of 30 mg/kg cortisone at 1 to 24 hours post compound dose. At 10 minutes post cortisone challenge, each animal is euthanized for 1 minute in a CO2 chamber, followed by blood collection via cardiac puncture into serum separator tubes. Once fully clotted, tubes are spun at 2500×g, 4° C. for 15 minutes, the serum transferred to wells of 96-well plates (Corning Inc, Costar #4410, cluster tubes, 1.2 ml, polypropylene), and the plates are frozen at −20° C. until analysis by LC-MS/MS. […]

T1 sequence (P28845 whole entry): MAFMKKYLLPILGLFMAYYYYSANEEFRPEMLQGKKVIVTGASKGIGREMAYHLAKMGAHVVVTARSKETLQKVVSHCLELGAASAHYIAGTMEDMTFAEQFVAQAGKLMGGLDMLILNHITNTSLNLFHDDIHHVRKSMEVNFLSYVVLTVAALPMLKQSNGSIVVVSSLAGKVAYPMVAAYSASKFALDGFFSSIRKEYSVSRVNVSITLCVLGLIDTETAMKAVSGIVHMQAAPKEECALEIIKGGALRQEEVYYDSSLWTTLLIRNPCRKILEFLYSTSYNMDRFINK
T2 sequence (P50172 whole entry): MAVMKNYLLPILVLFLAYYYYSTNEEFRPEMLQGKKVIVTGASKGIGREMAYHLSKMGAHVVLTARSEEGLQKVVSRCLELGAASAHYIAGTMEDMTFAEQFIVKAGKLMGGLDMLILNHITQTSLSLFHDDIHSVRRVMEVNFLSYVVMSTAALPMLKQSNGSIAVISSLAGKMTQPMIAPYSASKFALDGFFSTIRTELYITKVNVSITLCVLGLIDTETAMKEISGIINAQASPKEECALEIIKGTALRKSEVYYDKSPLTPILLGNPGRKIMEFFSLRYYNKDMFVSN

Row | SMILES | IC50 [1] | % Inhibition after 16 hours (dose of 10 (mg/kg)) [2]
1 | CS(=O)(=O)N1CCC(N2CC[C@@H](Cc3c(Cl)cc(-c4ccc(F)cc4)cc3Cl)C2=O)CC1 [Example 1, (R)-3-(3,5-Dichloro-4′-fluoro-biphenyl-4-ylmethyl)-1-(1-methanesulfonyl-piperidin-4-yl)-pyrrolidin-2-one] | 85 nM | 
2 | COC(=O)N1CCC(N2CC[C@@H](Cc3c(Cl)cc(-c4ccc(F)cc4)cc3Cl)C2=O)CC1 [Example 3, 4-[(R)-3-(3,5-Dichloro-4′-fluoro-biphenyl-4-ylmethyl)-2-oxo-pyrrolidin-1-yl]-piperidine-1-carboxylic acid methyl ester] | 84.5 nM | 

Continued, values first:

Row | IC50 [1] | % Inhibition after 16 hours (dose of 10 (mg/kg)) [2] | SMILES
3 | 231 nM | 92% | COC(=O)N1CCC(N2CC[C@@H](Cc3c(Cl)cc(-c4ccc(C(=O)N5CCC(C(F)(F)F)CC5)cc4)cc3Cl)C2=O)CC1 [Example 4, 4-{(R)-3-[3,5-Dichloro-4′-(4-trifluoromethyl-piperidine-1-carbonyl)-biphenyl-4-ylmethyl]-2-oxo-pyrrolidin-1-yl}-piperidine-1-carboxylic acid methyl ester]
4 | 73 nM | 65% | CNC(=O)N1CCC(N2CC[C@@H](Cc3c(Cl)cc(-c4ccc(F)cc4)cc3Cl)C2=O)CC1 [Example 6, 4-[(R)-3-(3,5-Dichloro-4′-fluoro-biphenyl-4-ylmethyl)-2-oxo-pyrrolidin-1-yl]-piperidine-1-carboxylic acid methylamide]
5 | 159 nM |  | O=C(Nc1ccccc1)N1CCC(N2CC[C@@H](Cc3c(Cl)cc(-c4ccc(F)cc4)cc3Cl)C2=O)CC1 [Example 8, 4-[(R)-3-(3,5-Dichloro-4′-fluoro-biphenyl-4-ylmethyl)-2-oxo-pyrrolidin-1-yl]-piperidine-1-carboxylic acid phenylamide]
